The record followed here is ChEMBL document CHEMBL1148604 (J Med Chem, 2006).

For orientation: inhibition means the change of the read-out against control, counted positive when it falls. One may read the MIC as the smallest concentration in the dilution series that meets the test's criterion for growth inhibition. A low value points to greater potency. The IC50 is the point on the concentration scale where inhibition reaches its midpoint. Read a low IC50 as inhibition by little substance.

In assay [1] the target is T1, 3-oxoacyl-[acyl-carrier-protein] synthase 3 (Escherichia coli) (UniProt C3TDZ2).
T1 sequence (whole entry): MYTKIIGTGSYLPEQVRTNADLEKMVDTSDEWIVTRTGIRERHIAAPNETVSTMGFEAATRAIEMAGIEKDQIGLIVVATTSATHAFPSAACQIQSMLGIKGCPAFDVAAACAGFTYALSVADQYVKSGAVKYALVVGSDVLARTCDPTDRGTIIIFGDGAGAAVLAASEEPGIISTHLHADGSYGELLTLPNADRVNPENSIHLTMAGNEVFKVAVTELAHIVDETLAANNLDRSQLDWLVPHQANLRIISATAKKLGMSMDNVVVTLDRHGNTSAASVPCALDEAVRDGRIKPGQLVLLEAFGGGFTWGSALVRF
In words: Inhibitory activity against FabH from Escherichia coli ANSI at 100 uM.

The target in assay [2] is T2, Mycobacterial beta-ketoacyl-[acyl-carrier-protein] synthase III (Mycobacterium tuberculosis) (UniProt P9WNG3).
T2 sequence (whole entry): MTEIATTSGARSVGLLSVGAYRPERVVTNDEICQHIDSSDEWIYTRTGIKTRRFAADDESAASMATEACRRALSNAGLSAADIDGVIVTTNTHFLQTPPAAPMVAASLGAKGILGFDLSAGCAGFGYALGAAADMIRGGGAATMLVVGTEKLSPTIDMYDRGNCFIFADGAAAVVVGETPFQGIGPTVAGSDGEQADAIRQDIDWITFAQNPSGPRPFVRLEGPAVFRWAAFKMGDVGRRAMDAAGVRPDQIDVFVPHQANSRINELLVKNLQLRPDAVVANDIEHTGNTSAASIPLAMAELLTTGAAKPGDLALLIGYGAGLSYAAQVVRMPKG
In words: Inhibitory activity against FabH from Mycobacterium tuberculosis H37Rv at 100 uM.

In assay [3] the target is T3, 3-oxoacyl-[acyl-carrier-protein] synthase 1 (Mycobacterium tuberculosis) (UniProt P9WQD9).
T3 sequence (whole entry): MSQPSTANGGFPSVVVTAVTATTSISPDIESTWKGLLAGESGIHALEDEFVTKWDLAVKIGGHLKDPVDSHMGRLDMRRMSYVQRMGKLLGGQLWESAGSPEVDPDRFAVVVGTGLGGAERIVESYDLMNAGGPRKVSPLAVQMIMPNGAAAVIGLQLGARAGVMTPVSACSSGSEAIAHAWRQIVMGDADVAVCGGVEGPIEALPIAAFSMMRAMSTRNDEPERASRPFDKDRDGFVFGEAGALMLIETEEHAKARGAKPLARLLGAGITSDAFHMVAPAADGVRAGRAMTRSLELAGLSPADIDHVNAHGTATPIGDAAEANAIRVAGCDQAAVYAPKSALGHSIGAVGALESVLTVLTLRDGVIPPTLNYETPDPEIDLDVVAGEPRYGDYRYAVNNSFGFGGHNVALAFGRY
Briefly: Inhibitory activity against KasA from Mycobacterium tuberculosis H37Rv at 100 uM.

A further assay concerns Escherichia coli. In words: Inhibitory activity against Escherichia coli ANSI. The assay is classed as functional.
The test system of assay [4] is Mycobacterium tuberculosis. Briefly: Inhibitory activity against Mycobacterium tuberculosis H37Rv. The assay is classed as functional.
Assay [5] concerns the target T4, Mycobacterial beta-ketoacyl-[acyl-carrier-protein] synthase III (Mycobacterium tuberculosis, UniProt P9WNG3).
T4 sequence (P9WNG3 whole entry): T2 sequence (whole entry)
In words: Inhibitory activity against FabH from Mycobacterium tuberculosis H37Rv.

In assay [6] the target is T5, 3-oxoacyl-[acyl-carrier-protein] synthase 2 (Mycobacterium tuberculosis) (UniProt P9WQD7).
T5 sequence (whole entry): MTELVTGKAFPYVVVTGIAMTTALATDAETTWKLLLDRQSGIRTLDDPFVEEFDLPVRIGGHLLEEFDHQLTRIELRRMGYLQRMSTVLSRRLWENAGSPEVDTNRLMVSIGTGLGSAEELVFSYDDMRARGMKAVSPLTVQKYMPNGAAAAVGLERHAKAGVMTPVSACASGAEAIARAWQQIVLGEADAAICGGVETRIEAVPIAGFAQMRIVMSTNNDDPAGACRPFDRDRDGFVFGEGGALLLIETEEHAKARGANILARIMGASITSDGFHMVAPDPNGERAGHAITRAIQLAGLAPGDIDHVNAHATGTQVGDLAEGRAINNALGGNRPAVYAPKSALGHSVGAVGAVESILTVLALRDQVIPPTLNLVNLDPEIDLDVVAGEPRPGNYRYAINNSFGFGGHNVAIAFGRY
Briefly: Inhibitory activity against KasB from Mycobacterium tuberculosis H37Rv at 100 uM.

The target of assay [7] is T6, 3-oxoacyl-[acyl-carrier-protein] synthase 1 (Escherichia coli K-12) (UniProt P0A953).
T6 sequence (whole entry): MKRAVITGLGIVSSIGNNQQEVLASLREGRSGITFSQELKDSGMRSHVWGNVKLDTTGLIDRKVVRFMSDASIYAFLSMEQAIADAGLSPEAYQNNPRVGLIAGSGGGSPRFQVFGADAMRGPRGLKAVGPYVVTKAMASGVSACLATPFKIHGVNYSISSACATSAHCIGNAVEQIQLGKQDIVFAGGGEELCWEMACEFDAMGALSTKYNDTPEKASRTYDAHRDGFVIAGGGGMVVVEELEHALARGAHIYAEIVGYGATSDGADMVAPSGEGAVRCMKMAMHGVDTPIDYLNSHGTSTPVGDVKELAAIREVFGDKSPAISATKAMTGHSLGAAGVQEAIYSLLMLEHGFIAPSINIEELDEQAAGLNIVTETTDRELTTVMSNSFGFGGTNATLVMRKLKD
Briefly: Inhibitory activity against FabB from Escherichia coli ANSI at 100 uM.

The target in assay [8] is T7, 3-oxoacyl-[acyl-carrier-protein] synthase 3 (Escherichia coli, UniProt C3TDZ2).
T7 sequence (C3TDZ2 whole entry): T1 sequence (whole entry)
Briefly: Inhibitory activity against FabH from Escherichia coli ANSI.

Values after ≈ are worked out from the molar mass of the structure shown. Active and inactive are the calls of the source. A value given as a limit tells only on which side of the number the result lay.

On to `CC1=C(O)C(C)(Cc2ccc(C(F)(F)F)cc2)SC1=O` (centres undefined), for which the inhibition entry in [1], in assay [3], in [6] and in assay [7] was “inactive” throughout. The inhibition in [2] is < 30%. Further, the MIC in the assay with Escherichia coli is > 1000 µM; in [4], 1000 µM (≈ 302 µg/mL). The IC50 in [5] was > 100 µM.

Regarding `CC[C@H](C)CC1(C)SC(O)=C(C)C1=O` (some centres undefined), in assay [1], the inhibition was < 30%. The inhibition result in assay [2], in assay [3], in assay [6] and in assay [7] was “inactive” each time. In addition, the MIC is > 1000 µM in the assay on Escherichia coli and 500 µM (≈ 107 µg/mL) in assay [4]. For the same compound, in assay [8], the IC50 was > 100 µM.

On to `CC1=C(O)C(C)(C2CCCCC2)SC1=O` (centres undefined), for which the inhibition entry in assay [1], in [3], in assay [6] and in assay [7] was “inactive” in each case. Further, the inhibition in [2] is < 30%. Moreover, the minimum inhibitory concentration (MIC) is > 1000 µM against Escherichia coli and 1000 µM (≈ 226 µg/mL) in assay [4]. Besides, in assay [5], the half-maximal inhibitory concentration (IC50) was > 100 µM.

For the compound `CC1=C(O)C(C)(Cc2ccc(Cl)cc2Cl)SC1=O` (centres undefined), the inhibition result in assay [1], in assay [3], in assay [6] and in assay [7] was “inactive” each time. Further, in assay [2], the inhibition was < 30%. Besides, the MIC came to 150 µM (≈ 45.5 µg/mL) with Escherichia coli and 500 µM (≈ 152 µg/mL) in assay [4]. Besides, the concentration for half-maximal inhibition (IC50) in assay [5] was > 100 µM.

Regarding `CCC(C)C1(C)SC(O)=C(C)C1=O` (centres undefined), the inhibition entry in assay [1], in [3], in assay [6] and in [7] was “inactive” throughout. The inhibition in [2] is < 30%. The MIC (in the assay on Escherichia coli; in assay [4]) was > 1000 µM each time. In addition, the IC50 in assay [5] is > 100 µM.

For the compound `CC1=C(O)C(C)(Cc2ccc(Cl)c(Cl)c2)SC1=O` (centres undefined), the inhibition in [1] and in assay [2] was < 30% in each case. In addition, the inhibition result in [3], in assay [6] and in assay [7] was “inactive” throughout. Further, the minimum inhibitory concentration (MIC) with Escherichia coli was > 1000 µM; in assay [4], 500 µM (≈ 152 µg/mL). Also, the IC50 in assay [8] and in [5] was > 100 µM in each case.

Turning to `CCCCCCC1(C)SC(O)=C(C)C1=O` (centres undefined), the inhibition result in assay [1], in [2], in assay [3], in [6] and in assay [7] was “inactive” each time. The figures for the minimal inhibitory concentration (MIC) (against Escherichia coli; in assay [4]) were > 1000 µM and 1000 µM (≈ 228 µg/mL), respectively.

For `CC1=C(O)C(C)(CC2CC2)SC1=O` (centres undefined), in assay [1], the inhibition was < 30%. Moreover, the inhibition entry in assay [2], in [3], in [6] and in [7] was “inactive” each time. For the same compound, the minimal inhibitory concentration (MIC) (in the assay on Escherichia coli; in [4]) was > 1000 µM throughout. Also, the IC50 in assay [8] is > 100 µM.

Turning to `C=CCC1(C)SC(=O)C(C)=C1O` (centres undefined), the inhibition entry in assay [1], in [2], in assay [3], in [6] and in assay [7] was “inactive” throughout. Further, the MIC (against Escherichia coli; in assay [4]) was > 1000 µM throughout.

As for `CC1=C(O)SC(C)(CC(C)C)C1=O` (centres undefined), the inhibition result in [1], in assay [2], in assay [3], in [6] and in assay [7] was “inactive” throughout. The minimum inhibitory concentration (MIC) (against Escherichia coli; in assay [4]) was > 1000 µM throughout.

Regarding `C=CC(C)CC1(C)SC(O)=C(C)C1=O` (centres undefined), the inhibition entry in assay [1], in [2], in assay [3], in [6] and in assay [7] was “inactive” throughout. The MIC (with Escherichia coli; in assay [4]) was > 1000 µM in each case.

Take `CC1=C(O)C(C)(C2CCCC2)SC1=O` (centres undefined): the inhibition entry in assay [1], in assay [2], in assay [3], in assay [6] and in [7] was “inactive” throughout. Moreover, the minimal inhibitory concentration (MIC) (in the assay with Escherichia coli; in assay [4]) was > 1000 µM each time.

Consider `CC1=C(O)C(C)(C/C=C/c2ccccc2)SC1=O` (centres undefined), for which the inhibition result in [1], in assay [2], in assay [3], in [6] and in assay [7] was “inactive” each time. The MIC (against Escherichia coli; in [4]) was > 1000 µM throughout.

Consider `CCC(CC)CC1(C)SC(O)=C(C)C1=O` (centres undefined), for which the inhibition entry in assay [1], in [2], in assay [3], in assay [6] and in assay [7] was “inactive” in each case. For the same compound, the minimal inhibitory concentration (MIC) against Escherichia coli was > 1000 µM; in assay [4], 1000 µM (≈ 228 µg/mL).

As to `C=C(C)CC1(C)SC(O)=C(C)C1=O` (centres undefined), the inhibition entry in assay [1], in assay [2], in assay [3], in assay [6] and in assay [7] was “inactive” in each case. Further, the minimum inhibitory concentration (MIC) (against Escherichia coli; in [4]) was > 1000 µM throughout.

Take `CC1=C(O)C(C)(Cc2ccccc2)SC1=O` (centres undefined): the inhibition entry in [1], in [2], in assay [3], in [6] and in [7] was “inactive” in each case. Also, the MIC (in the assay with Escherichia coli; in assay [4]) was > 1000 µM each time.

In the case of `CC1=C(O)SC(C)(C(C)C)C1=O` (centres undefined), the inhibition entry in assay [1], in assay [2], in assay [3], in assay [6] and in assay [7] was “inactive” throughout. Also, the minimal inhibitory concentration (MIC) (in the assay with Escherichia coli; in [4]) was > 1000 µM in each case.

Regarding `CCCCCC1(C)SC(O)=C(C)C1=O` (centres undefined), the inhibition entry in [1], in assay [2], in assay [3], in assay [6] and in assay [7] was “inactive” in each case. Further, the MIC against Escherichia coli was > 1000 µM; in [4] it was 500 µM (≈ 107 µg/mL).
